Data set [1] deals with T1, AmpC from Escherichia coli (AmpCEC) (Escherichia coli, UniProt P00811).
T1 construct: made in house; host or cells: E. coli W3110 (pAD7 vector)
The data set can be described thus: Steady-state competition kinetics of AmpCEC (100 nM) with fluorescent substrate FC-5 (Kiapp, k2/K). The conditions noted are these: for Ki: Kiapp, apparent inhibition constant corrected with KM of FC-5; for kinact/KI: pH 7.5, read-out: k2/K, 100 nM AmpCEC, 5 µM FC-5. The data set is classed as biochemical. As for the experimental part: (§1) All kinetic measurements were carried out in competition assays using the fluorescent substrate FC-5 [36] under steady-state conditions monitoring hydrolysis, in 100 mM phosphate buffer pH 7.5 supplemented with 0.01% (v/v) Triton X-100 (Assay Buffer). Fluorescence was measured using a PHERAstarFS (BMG Labtech, Aylesbury, United Kingdom) plate-reader, recording emission spectra at λex = 380 nm and λem = 460 nm. IC50s were determined after 10 min incubation time of 500 pM AmpCEC with varying concentrations of inhibitors and assayed using 5 µM FC-5. Nonlinear regression analyses were carried out using GraphPad Prism V. 5.04 (GraphPad Software, San Diego, CA, USA).
As described for avibactam inhibition, the kinetics of bicyclic boronate inhibition of β-lactamases can be described assuming a two-step, reversible inhibition model:(1) E+I → k1 ←k−1 E:I → k2 ←k−2 E−I with E: enzyme; I: inhibitor; k1: association rate constant; k−1: dissociation rate constant; k2: binding rate constant, and k−2: recyclization rate constant.
To obtain the pseudo first-order rate constant kobs and the apparent inhibition constant Kiapp, the rate of FC-5 (5 µM) hydrolysis by AmpCEC (100 nM) was measured in the presence of varying concentrations of the inhibitor.
Plotting the resultant kobs values against the inhibitor concentration [I] (Figure S1b) and fitting to Equation (3) gives the apparent second-order rate constant (k2/K’) (3) kobs=k2+k2/K^′∗ I with K’ representing the equilibrium coefficient of AmpCEC inhibition in the presence of FC-5 in the set concentration of 5 µM.
This can then be corrected using the Michaelis constant (KM) of FC-5 for AmpCEC and the FC-5 concentration [S] according to Equation (4) to give the second-order rate constant (k2/K):(4) k2/K=k2/K^′∗ S/KM+1
The same data were used to determine the apparent inhibition constant Kiapp. The reciprocals of the initial rates were plotted against inhibitor concentration (Figure S1a), giving a straight line for which the value of the intercept divided by the slope gives Kiapp’. From this, Kiapp can be obtained after correction with the KM for FC-5 according to Equation (5):(5) Kiapp=Kiapp’/1+S/KM

Data set [2] has as its target T1, AmpC from Escherichia coli (AmpCEC). The data set is classed as biochemical. The conditions noted are these: half-life of the enzyme-inhibitor complex, ln2/koff. As for the experimental part: as §1
Off rates (k-2 or koff) were measured using the jump-dilution method (Figure S1c). AmpCEC (1 µM) was incubated with the respective inhibitor (10 µM for TAN, CB2 and CB3, and 100 µM for VAB) for 30 min at room temperature, then diluted 100,000 fold in the Assay Buffer (final enzyme concentration: 10 pM) and immediately assayed with 25 µM FC-5. The data were fitted to Equation (2) with V0 in this case representing the velocity of the no-enzyme control and VS representing the initial velocity of uninhibited enzyme.
The half-life of the enzyme-inhibitor complex t1/2 is given by Equation (6):(6) t1/2=ln2/koff

For data set [3] the target is unchanged. The data set can be described thus: IC50 determination, 500 pM AmpCEC, 5 µM FC-5, 10 min pre-incubation. The data set is classed as biochemical. The conditions noted are these: pIC50, 500 pM AmpCEC, 5 µM FC-5, 10 min inhibitor pre-incubation at room temperature. As for the experimental part:
as §1

Data set [4] relates to DH5α Escherichia coli. The data set can be described thus: Broth microdilution MIC of ceftazidime, strain without plasmid. The data set is classed as cell-based. The conditions noted are these: read-out: Minimum Inhibitory Concentration Ceftazidime. On the procedure: (§2) Minimum inhibitory concentrations (MICs) were determined by broth microdilution in triplicate and interpreted using published Clinical and Laboratory Standards Institute (CLSI) guidelines.
(§3) Ceftazidime (CAZ) was tested alone (0.25–256 μg mL^−1) against DH5α Escherichia coli and DH5α E. coli containing the pAD7-AmpCEC plasmid and in combination with CB2, CB3, TAN, and VAB (all tested at a fixed concentration of 4 μg mL^−1) using the DH5α E. coli strain containing the pAD7-AmpCEC plasmid.

Data set [5] has as its system DH5α E. coli containing the pAD7-AmpCEC plasmid. Nature of the data set: Broth microdilution MIC of ceftazidime alone or with inhibitor, AmpCEC producing strain. The data set is classed as cell-based, Escherichia coli. As for the experimental part:
as §2, §3

Values joined by “and” are separate entries in the source; they are usually repeats but may differ in a detail not shown here. Identical values can stand only once.

T1 sequence (P00811 20-377): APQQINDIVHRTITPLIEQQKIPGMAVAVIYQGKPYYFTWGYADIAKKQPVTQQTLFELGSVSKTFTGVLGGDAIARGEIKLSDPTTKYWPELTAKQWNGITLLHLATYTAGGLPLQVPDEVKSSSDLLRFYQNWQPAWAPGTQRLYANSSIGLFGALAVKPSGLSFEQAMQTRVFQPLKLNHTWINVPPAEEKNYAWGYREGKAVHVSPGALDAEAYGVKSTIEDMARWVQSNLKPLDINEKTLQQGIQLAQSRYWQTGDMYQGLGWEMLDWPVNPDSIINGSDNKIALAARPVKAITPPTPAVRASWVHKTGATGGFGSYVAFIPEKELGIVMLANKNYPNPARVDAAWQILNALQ

With `NCCN[C@H]1CC[C@H](CC(=O)N[C@H]2Cc3cccc(C(=O)O)c3OB2O)CC1` [TAN, taniborbactam], the Ki in data set [1] (100 nM AmpCEC, 5 µM FC-5) is 4 µM and 3.73 µM. For the same molecule, in data set [1] (second-order rate constant), the kinact/KI came out at 85600 ± 9200 M⁻¹ s⁻¹. The same molecule gave a t1/2 in data set [2] of 4.55 ± 0.91 min. Also, the IC50 in data set [3] is 0.0295 µM.
`O=C(O)C[C@@H]1CC[C@H](NC(=O)Cc2cccs2)B(O)O1` [VAB, vaborbactam]: the k2/K in data set [1] (100 nM AmpCEC, 5 µM FC-5, second-order rate constant) amounted to 6.55 ± 0.46 M^−1 s^−1 × 10^3. The Ki in data set [1] (100 nM AmpCEC, 5 µM FC-5) is 19 µM and 19.1 µM. Besides, the kinact/KI in data set [1] (second-order rate constant) is approximately 7000 M⁻¹ s⁻¹. In addition, the t1/2 in data set [2] is listed as 16.8 ± 0.7 min. In addition, in data set [3], the IC50 was 0.501 µM and 0.479 µM.
As for `CC(C)(O/N=C(\C(=O)N[C@@H]1C(=O)N2C(C(=O)[O-])=C(C[n+]3ccccc3)CS[C@H]12)c1csc(N)n1)C(=O)O` [CAZ, Ceftazidime], the MIC is 1 µg/mL in data set [4] and 256 µg/mL in data set [5] (Escherichia coli, read-out: Minimum Inhibitory Concentration Ceftazidime).
As to `NCc1ccc(C(=O)N[C@H]2Cc3cccc(C(=O)O)c3OB2O)cc1` [CB2], the Ki in data set [1] (100 nM AmpCEC, 5 µM FC-5) was 3 µM and 3.26 µM. Moreover, in data set [1] (second-order rate constant), the kinact/KI was found to be 81000 ± 6400 M⁻¹ s⁻¹. This molecule also came in with a t1/2 in data set [2] of 4.18 ± 0.41 min. In data set [3], the IC50 is 0.0316 µM and 0.0324 µM.
For `O=C(O)c1cccc2c1OB(O)C(SCc1ccccc1)C2` (centres unmarked) [CB3], in data set [1] (100 nM AmpCEC, 5 µM FC-5), the Ki is 1 µM and 1.16 µM. For the same molecule, in data set [1] (second-order rate constant), the kinact/KI worked out at 224000 ± 21000 M⁻¹ s⁻¹. The “Minimum Inhibitory Concentration Ceftazidime (CAZ + inhibitor)” value in data set [5] (CAZ in combination with the inhibitor at a fixed concentration of 4 µg mL^−1, DH5α pAD7 AmpCEC) came out at 4 µg/mL. Further, in data set [2], the t1/2 came to 0.55 ± 0.34 min. The molecule also showed an IC50 in data set [3] of 0.0295 µM.
